Structures can show the parent of a compound that is named as a salt. Where two headings read alike, the source gives them in different places. One block for each compound: values may come before it.
Key:
[1] = molecular target: T1, recombinant human 5-HT6 receptor (Homo sapiens, UniProt P50406); test: Determination of Kb values for 5-HT6 receptor (CHO pCRE-Luc reporter assay); format: cell-based; conditions: antagonism of 10 uM serotonin, luciferase reporter, CHO cells
T1 construct: expressed in transfected cells
T1 sequence (P50406 whole entry): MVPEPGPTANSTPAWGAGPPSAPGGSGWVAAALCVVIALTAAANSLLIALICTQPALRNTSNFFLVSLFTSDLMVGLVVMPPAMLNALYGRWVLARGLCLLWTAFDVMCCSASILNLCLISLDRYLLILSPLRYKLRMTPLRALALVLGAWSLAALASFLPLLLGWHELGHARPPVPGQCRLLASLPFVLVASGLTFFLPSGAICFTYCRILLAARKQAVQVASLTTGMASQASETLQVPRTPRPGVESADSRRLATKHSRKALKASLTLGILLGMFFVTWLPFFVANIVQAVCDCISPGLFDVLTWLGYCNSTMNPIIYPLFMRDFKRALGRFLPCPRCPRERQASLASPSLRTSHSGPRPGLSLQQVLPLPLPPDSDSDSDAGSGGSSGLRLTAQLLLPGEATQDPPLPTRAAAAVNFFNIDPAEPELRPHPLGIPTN
Protocol: A stable CHO cell line expressing recombinant human 5-HT6 receptor and pCRE-Luc reporter system was used for cell-based assay. The assay offers a non-radioactive based approach to determine binding of a compound to GPCRs. In this specific assay, the level of intracellular cyclic AMP which is modulated by activation or inhibition of the receptor is measured. The recombinant cells harbor luciferase reporter gene under the control of cAMP response element.
The above cells were grown in 96 well clear bottom white plates in Hams F12 medium containing 10% fetal bovine serum (FBS). Prior to the addition of compounds and/or agonist, cells were serum starved overnight. Increasing concentrations of test compounds were added along with 10 uM serotonin in Hams F12 medium containing 1% dialyzed FBS to the cells. The incubation was continued at 37° C. in CO2 incubator for 4 hours. Medium was removed and cells were washed with phosphate buffered saline. The cells were lysed and luciferase activity was measured in a Luminometer. Luminescence units were plotted against the compound concentrations using Graphpad software. EC50 values of the compounds were defined as the concentration required reducing the luciferase activity by 50%. The Kb values were calculated by feeding the concentration of the agonist used in the assay and its EC50 value in the same software.

[2] = Rodent pharmacokinetic study; format: in vivo; conditions: plasma, Wistar/Male rat, 10 mg/kg; for AUC(0-t) / half-life / Cmax / Tmax: vehicle water (Ex. 8: 50% PEG 400); for Cmax: read-out: Cmax; for Tmax: read-out: Tmax; for bioavailability: Oral vs Intravenous, read-out: Bioavailability
Protocol: Male wistar rats (230-280 grams) obtained from NIN (National Institute of Nutrition, Hyderabad, India) were used as an experimental animal. Three to five animals were housed in each cage. Animals were kept fasted over night and maintained on a 12 hours light/dark cycle. Three rats were dosed NCE (10 mg/Kg) orally and intravenously on day 0 and day 2.
At each time point blood was collected by jugular vein. Plasma was stored frozen at −20° C. until analysis. The concentrations of the NCE compound in plasma were determined using LC-MS/MS method. Schedule time points: Pre dose 0.25, 0.5, 1, 1.5, 2, 3, 4, 6, 8, 10, 12 and 24 hours after dosing (n=3). The NCE compounds were quantified in plasma by validated LC-MS/MS method using solid phase extraction technique. NCE compounds were quantified in the calibration range of 2-2000 ng/mL in plasma. Study samples were analyzed using calibration samples in the batch and quality control samples spread across the batch.
Pharmacokinetic parameters Cmax, Tmax, AUCt, T1/2 and Bioavailability were calculated by non-compartmental model using software WinNonlin version 5.1.

[3] = Object recognition task model; format: in vivo; conditions: rat, p.o.
Protocol: The cognition-enhancing properties of compounds of this invention were estimated using a model of animal cognition: the object recognition task model.
Male Wister rats (230-280 grams) obtained from N.I.N. (National Institute of Nutrition, Hyderabad, India) was used as experimental animals. Four animals were housed in each cage. Animals were kept on 20% food deprivation before one day and given water ad libitum throughout the experiment and maintained on a 12 hours light/dark cycle. Also the rats were habituated to individual arenas for 1 hour in the absence of any objects.
One group of 12 rats received vehicle (1 mL/Kg) orally and another set of animals received compound of the formula (I) either orally or i.p., before one hour of the familiar (T1) and choice trial (T2).
The experiment was carried out in a 50×50×50 cm open field made up of acrylic. In the familiarization phase, (T1), the rats were placed individually in the open field for 3 minutes, in which two identical objects (plastic bottles, 12.5 cm height×5.5 cm diameter) covered in yellow masking tape alone (a1 and a2) were positioned in two adjacent corners, 10 cm. from the walls. After 24 hours of the (T1) trial for long-term memory test, the same rats were placed in the same arena as they were placed in T1 trial. Choice phase (T2) rats were allowed to explore the open field for 3 minutes in presence of one familiar object (a3) and one novel object (b) (Amber color glass bottle, 12 cm high and 5 cm in diameter). Familiar objects presented similar textures, colors and sizes. During the T1 and T2 trial, explorations of each object (defined as sniffing, licking, chewing or having moving vibrissae whilst directing the nose towards the object at a distance of less than 1 cm) were recorded separately by stopwatch. Sitting on an object was not regarded as exploratory activity, however, it was rarely observed. T1 is the total time spent exploring the familiar objects (a1+a2). T2 is the total time spent exploring the familiar object and novel object (a3+b).
The object recognition test was performed as described by Ennaceur, A., Delacour, J., 1988, A new one-trial test for neurobiological studies of memory in rats—Behavioural data, Behav. Brain Res., 31, 47-59.

SMILES: COc1ccc(S(=O)(=O)c2ccc(OC)c(NC3CCN(C)CC3)c2)cc1Cl [Example 34, N-[5-(3-Chloro-4-methoxybenzenesulfonyl)-2-methoxyphenyl]-N-(1-methylpiperidin-4-yl)amine tartarate]
- Kb [1]: 0.1 nM

SMILES: COc1ccc2[nH]cc(S(=O)(=O)c3ccc(OC)c(NC4CCNCC4)c3)c2c1 [Example 14, N-(Piperidin-4-yl)-N-[2-methoxy-5-(5-methoxy-1H-Indole-3-ylsulfonyl)phenyl]amine]
- Kb [1]: 0.16 nM

SMILES: COc1ccc(S(=O)(=O)c2ccc(OC)c(NC3CCN(C)CC3)c2)cc1Br [Example 30, N-[5-(3-Bromo-4-methoxybenzenesulfonyl)-2-methoxyphenyl]-N-(1-methylpiperidin-4-yl)amine tartarate]
- Kb [1]: 0.01 nM

SMILES: COc1ccc(S(=O)(=O)c2cc(F)ccc2OC)cc1NC1CCN(C)CC1 [Example 31, N-[5-(5-Fluoro-2-methoxybenzenesulfonyl)-2-methoxyphenyl]-N-(1-methylpiperidin-4-yl)amine tartarate]
- Kb [1]: 0.05 nM

SMILES: COc1ccc(Br)cc1S(=O)(=O)c1ccc(C)c(NC2CCN(C)CC2)c1 [Example 23, N-[5-(5-Bromo-2-methoxybenzenesulfonyl)-2-methylphenyl]-N-(1-methylpiperidin-4-yl)amine hydrochloride]
- Kb [1]: 2.1 nM

SMILES: Cc1ccc(S(=O)(=O)c2ccccc2)cc1NC1CCN(C)CC1 [Example 35, N-(5-Benzenesulfonyl-2-methylphenyl)-N-(1-methylpiperidin-4-yl)amine]
- Exploration time mean ± S.E.M, Familiar object ([3]; 10 mg/kg): 9.37 ± 1.66 s
- Exploration time mean ± S.E.M, Novel object ([3]; 10 mg/kg): 15.81 ± 2.89 s
- Inference ([3]; 10 mg/kg): Active

SMILES: COc1ccc(S(=O)(=O)c2cc(Br)ccc2OC)cc1NC1CCNCC1 [Example 29, N-[5-(5-Bromo-2-methoxybenzenesulfonyl)-2-methoxyphenyl]-N-(piperidin-4-yl)amine hydrochloride]
- Kb [1]: 0.1 nM

SMILES: COc1ccc(Br)cc1S(=O)(=O)c1ccc(C)c(NC2CCNCC2F)c1 (centres unmarked) [Example 18, N-[5-(5-Bromo-2-methoxybenzenesulfonyl)-2-methylphenyl]-N-(3-fluoropiperidin-4-yl) amine hydrochloride]
- Kb [1]: 6.1 nM

SMILES: COc1ccc(S(=O)(=O)c2cc(Br)ccc2OC)cc1NC1CCN(C)CC1.Cl [Example 3, N-[5-(5-Bromo-2-methoxybenzenesulfonyl)-2-methoxyphenyl]-N-(1-methylpiperidin-4-yl)amine hydrochloride salt]
- Kb [1]: 0.01 nM
- AUC(0-t) ([2]; Intravenous): 1610 ± 544 ng·h/mL
- half-life ([2]; Intravenous): 94.2 ± 12.6 min
- Cmax ([2]; Intravenous): 1080 ± 569 ng/mL
- Tmax ([2]; Intravenous): 7.2 ± 5.4 min
- bioavailability [2]: 38 ± 1%
- AUC(0-t) ([2]; Oral): 931 ± 186 ng·h/mL
- half-life ([2]; Oral): 81 ± 16.2 min
- Cmax ([2]; Oral): 341 ± 60 ng/mL
- Tmax ([2]; Oral): 33.6 ± 18.6 min
- Exploration time mean ± S.E.M, Familiar object ([3]; 1 mg/kg): 4.53 ± 0.72 s
- Exploration time mean ± S.E.M, Novel object ([3]; 1 mg/kg): 10.29 ± 1.54 s
- Inference ([3]; 1 mg/kg): Active

SMILES: COc1ccc(Br)cc1S(=O)(=O)c1ccc(C)c(NC2CCNCC2)c1 [Example 22, N-[5-(5-Bromo-2-methoxybenzenesulfonyl)-2-methylphenyl]-N-(piperidin-4-yl)amine hydrochloride]
- Kb [1]: 1.1 nM

SMILES: COc1ccc(S(=O)(=O)c2cc(Br)ccc2OC)cc1NC1CCNCC1F.Cl (centres unmarked) [Example 28, N-[5-(5-Bromo-2-methoxybenzenesulfonyl)-2-methoxyphenyl]-N-(3-fluoropiperidin-4-yl)amine hydrochloride]
- Kb [1]: 0.1 nM
- AUC(0-t) ([2]; Intravenous): 3470 ± 161 ng·h/mL
- half-life ([2]; Intravenous): 87.6 ± 7.8 min
- Cmax ([2]; Intravenous): 1920 ± 29 ng/mL
- Tmax ([2]; Intravenous): 4.8 min
- bioavailability [2]: 44 ± 18%
- AUC(0-t) ([2]; Oral): 1520 ± 630 ng·h/mL
- half-life ([2]; Oral): 81.6 ± 4.2 min
- Cmax ([2]; Oral): 429 ± 181 ng/mL
- Tmax ([2]; Oral): 49.8 ± 17.4 min
- Exploration time mean ± S.E.M, Familiar object ([3]; 1 mg/kg): 6.26 ± 0.30 s
- Exploration time mean ± S.E.M, Novel object ([3]; 1 mg/kg): 11.46 ± 1.02 s
- Inference ([3]; 1 mg/kg): Active

SMILES: COc1ccc(S(=O)(=O)c2ccc(Cl)cc2)cc1NC1CCN(C)CC1 [Example 32, N-[5-(4-Chlorobenzenesulfonyl)-2-methoxyphenyl]-N-(1-methylpiperidin-4-yl)amine tartarate]
- Kb [1]: 0.06 nM

Continued, in another order:

- melting point: 189.7 to 194.2 °C
- Kb [1]: 5.7 nM
- AUC(0-t) ([2]; Intravenous): 6950 ± 3450 ng·h/mL
- half-life ([2]; Intravenous): 338 ± 57 min
- Cmax ([2]; Intravenous): 1340 ± 426 ng/mL
- Tmax ([2]; Intravenous): 4.8 min
- bioavailability [2]: 58 ± 12%
- AUC(0-t) ([2]; Oral): 3810 ± 1340 ng·h/mL
- half-life ([2]; Oral): 544 ± 128 min
- Cmax ([2]; Oral): 327 ± 99 ng/mL
- Tmax ([2]; Oral): 180 min
SMILES: CN1CCC(Nc2cc(S(=O)(=O)c3c[nH]c4cc(Cl)ccc34)ccc2Cl)CC1.Cl [Example 8, N-(1-Methylpiperidin-4-yl)-N-[2-chloro-5-(6-chloro-1H-indole-3-ylsulfonyl)phenyl]amine hydrochloride]

- melting point: 240.3 to 243.2 °C
SMILES: COc1ccc2[nH]cc(S(=O)(=O)c3ccc(Cl)c(NC4CCN(C)CC4)c3)c2c1.Cl

- melting point: 186.1 to 189.9 °C
SMILES: CN1CCC(Nc2cc(S(=O)(=O)c3c[nH]c4cc(Cl)ccc34)ccc2Cl)CC1 [Example 15, N-(1-Methylpiperidin-4-yl)-N-[2-chloro-5-(6-chloro-1H-Indole-3-ylsulfonyl)phenyl] amine]

- melting point: 229.7 to 233.1 °C
- Kb [1]: 3.59 nM
SMILES: CN1CCC(Nc2cccc(S(=O)(=O)c3c[nH]c4ccc(F)cc34)c2)CC1.Cl [Example 6, N-(1-Methylpiperidin-4-yl)-N-[3-(5-fluoro-1H-indole-3-ylsulfonyl)phenyl]amine hydrochloride]

- Kb [1]: 3.38 nM
SMILES: CN1CCC(Nc2cccc(S(=O)(=O)c3c[nH]c4cc(Cl)ccc34)c2)CC1 [Example 5, N-(1-Methylpiperidin-4-yl)-N-[3-(6-chloro-1H-indole-3-ylsulfonyl)phenyl]amine hydrochloride]

- Kb [1]: 0.05 nM
SMILES: COc1ccc(S(=O)(=O)c2c[nH]c3ccccc23)cc1NC1CCN(C)CC1 [Example 11, N-(1-Methylpiperidin-4-yl)-N-[2-methoxy-5-(1H-Indole-3-ylsulfonyl)phenyl]amine]
- Exploration time mean ± S.E.M, Familiar object ([3]; 3 mg/kg): 9.19 ± 1.44 s
- Exploration time mean ± S.E.M, Novel object ([3]; 3 mg/kg): 14.24 ± 1.29 s
- Inference ([3]; 3 mg/kg): Active

- Kb [1]: 0.11 nM
SMILES: COc1ccc2[nH]cc(S(=O)(=O)c3ccc(OC)c(NC4CCN(C)CC4)c3)c2c1 [Example 13, N-(1-Methylpiperidin-4-yl)-N-[2-methoxy-5-(5-methoxy-1H-Indole-3-ylsulfonyl)phenyl]amine]

— patent publication US9018231B2, “Sulfone compounds as 5-HT6 receptor ligands” (Suven Life Sciences Limited, priority 2010, dated 2015)
